In US20240033124A1, “DRUG DELIVERY CONTACT LENS AND OPHTHALMIC PHARMACEUTICAL COMPOSITION” (DAE WON PHARMACEUTICAL CO., LTD, priority 2021, published 2024):

Assay: Drug release test according to blocking ratio of chamber unit (Franz diffusion cell)
Assay type: physicochemical
Procedure: In order to evaluate drug release characteristics according to the size of the blocking unit (blocking film) that is bonded to the chamber unit, which is for storing the drug, and is for blocking the release of the drug stored in the chamber unit, contact lenses for drug delivery of FIG. 4 having various blocking ratios were prepared.
Specifically, contact lenses for drug delivery bonded to blocking units (blocking films) capable of blocking a […], with respect to a total area of the chamber unit were prepared, a drug was injected into each chamber unit, and drug release characteristics were evaluated.
The drug release test was conducted by putting the contact lens for drug delivery into a Franz diffusion cell and evaluating, and the test was conducted while maintaining the temperature at 37.0±0.5° C. and by using a phosphate buffer solution of pH 7.4. A solution in which lifitegrast was dissolved in distilled water was injected into the chamber unit of contact lenses for drug delivery, and the contact lenses were mounted on a donor. In addition, the experiment was conducted in a manner that 5 mL of the solution in which the drug was released was collected with a syringe from each container, and filled with the same amount of buffer solution at a predetermined sampling time (0.5, 1, 1.5, 2, 3, 4, 6 hours), after 5 mL of the solution containing the collected drug was filtered through a syringe filter, 2 mL each was put into a vial and used as a test solution, and the obtained test solution was analyzed by using high-performance liquid chromatography (HPLC).

Structure (SMILES): CS(=O)(=O)c1cccc(C[C@H](NC(=O)c2c(Cl)cc3c(c2Cl)CCN(C(=O)c2ccc4ccoc4c2)C3)C(=O)O)c1 [lifitegrast]
- Cumulative drug release (%) (blocking ratio 0%, 0 h): 0%
- Cumulative drug release (%) (blocking ratio 0%, 0.5 h): 95%
- Cumulative drug release (%) (blocking ratio 0%, 1 h): 100%
- Cumulative drug release (%) (blocking ratio 0%, 1.5 h): 100%
- Cumulative drug release (%) (blocking ratio 0%, 2 h): 100%
- Cumulative drug release (%) (blocking ratio 0%, 3 h): 100%
- Cumulative drug release (%) (blocking ratio 0%, 4 h): 100%
- Cumulative drug release (%) (blocking ratio 0%, 5 h): 100%
- Cumulative drug release (%) (blocking ratio 0%, 6 h): 100%
- Cumulative drug release (%) (blocking ratio 2.5%, 0 h): 0%
- Cumulative drug release (%) (blocking ratio 2.5%, 0.5 h): 90%
- Cumulative drug release (%) (blocking ratio 2.5%, 1 h): 95%
- Cumulative drug release (%) (blocking ratio 2.5%, 1.5 h): 100%
- Cumulative drug release (%) (blocking ratio 2.5%, 2 h): 100%
- Cumulative drug release (%) (blocking ratio 2.5%, 3 h): 100%
- Cumulative drug release (%) (blocking ratio 2.5%, 4 h): 100%
- Cumulative drug release (%) (blocking ratio 2.5%, 5 h): 100%
- Cumulative drug release (%) (blocking ratio 2.5%, 6 h): 100%
- Cumulative drug release (%) (blocking ratio 50%, 0 h): 0%
- Cumulative drug release (%) (blocking ratio 50%, 0.5 h): 86%
- Cumulative drug release (%) (blocking ratio 50%, 1 h): 90%
- Cumulative drug release (%) (blocking ratio 50%, 1.5 h): 93%
- Cumulative drug release (%) (blocking ratio 50%, 2 h): 96%
- Cumulative drug release (%) (blocking ratio 50%, 3 h): 100%
- Cumulative drug release (%) (blocking ratio 50%, 4 h): 100%
- Cumulative drug release (%) (blocking ratio 50%, 5 h): 100%
- Cumulative drug release (%) (blocking ratio 50%, 6 h): 100%
- Cumulative drug release (%) (blocking ratio 75%, 0 h): 0%
- Cumulative drug release (%) (blocking ratio 75%, 0.5 h): 61%
- Cumulative drug release (%) (blocking ratio 75%, 1 h): 77%
- Cumulative drug release (%) (blocking ratio 75%, 1.5 h): 83%
- Cumulative drug release (%) (blocking ratio 75%, 2 h): 87%
- Cumulative drug release (%) (blocking ratio 75%, 3 h): 91%
- Cumulative drug release (%) (blocking ratio 75%, 4 h): 94%
- Cumulative drug release (%) (blocking ratio 75%, 5 h): 97%
- Cumulative drug release (%) (blocking ratio 75%, 6 h): 100%
- Cumulative drug release (%) (blocking ratio 85%, 0 h): 0%
- Cumulative drug release (%) (blocking ratio 85%, 0.5 h): 49%
- Cumulative drug release (%) (blocking ratio 85%, 1 h): 59%
- Cumulative drug release (%) (blocking ratio 85%, 1.5 h): 65%
- Cumulative drug release (%) (blocking ratio 85%, 2 h): 73%
- Cumulative drug release (%) (blocking ratio 85%, 3 h): 79%
- Cumulative drug release (%) (blocking ratio 85%, 4 h): 87%
- Cumulative drug release (%) (blocking ratio 85%, 5 h): 93%
- Cumulative drug release (%) (blocking ratio 85%, 6 h): 98%
- Cumulative drug release (%) (blocking ratio 95%, 0 h): 0%
- Cumulative drug release (%) (blocking ratio 95%, 0.5 h): 33%
- Cumulative drug release (%) (blocking ratio 95%, 1 h): 41%
- Cumulative drug release (%) (blocking ratio 95%, 1.5 h): 51%
- Cumulative drug release (%) (blocking ratio 95%, 2 h): 59%
- Cumulative drug release (%) (blocking ratio 95%, 3 h): 71%
- Cumulative drug release (%) (blocking ratio 95%, 4 h): 83%
- Cumulative drug release (%) (blocking ratio 95%, 5 h): 90%
- Cumulative drug release (%) (blocking ratio 95%, 6 h): 94%
- Cumulative drug release (%) (blocking ratio 100%, 0 h): 0%
- Cumulative drug release (%) (blocking ratio 100%, 0.5 h): 0%
- Cumulative drug release (%) (blocking ratio 100%, 1 h): 0%
- Cumulative drug release (%) (blocking ratio 100%, 1.5 h): 0%
- Cumulative drug release (%) (blocking ratio 100%, 2 h): 0%
- Cumulative drug release (%) (blocking ratio 100%, 3 h): 0%
- Cumulative drug release (%) (blocking ratio 100%, 4 h): 0%
- Cumulative drug release (%) (blocking ratio 100%, 5 h): 0%
- Cumulative drug release (%) (blocking ratio 100%, 6 h): 0%
